Source: ChEMBL document CHEMBL4376834, “Discovery of 4H-Chromen-4-one Derivatives as a New Class of Selective Rho Kinase (ROCK) Inhibitors, which Showed Potent Activity in ex Vivo Diabetic Retinopathy Models” (J Med Chem, 2019)

Columns and labels:
Myotonin-protein kinase = Myotonin-protein kinase (Homo sapiens, UniProt Q09013); assay: Inhibition of recombinant human DMPK (1 to 549 residues) using KKSRGDYMTMQIG as substrate after 40 mins in presence of [gamma-33ATP] by radiometric scintillation counting analysis
[1] = target: Receptor-interacting serine/threonine-protein kinase 2 (Homo sapiens, UniProt O43353); assay: Inhibition of recombinant human RIPK2 (1 to 299 residues) using MBP as substrate incubated for 120 mins in presence of [gamma33P]ATP by radiometric scintillation counting analysis
Chain of Receptor-interacting serine/threonine-protein kinase 2 (O43353 whole entry, the tested form may be a part): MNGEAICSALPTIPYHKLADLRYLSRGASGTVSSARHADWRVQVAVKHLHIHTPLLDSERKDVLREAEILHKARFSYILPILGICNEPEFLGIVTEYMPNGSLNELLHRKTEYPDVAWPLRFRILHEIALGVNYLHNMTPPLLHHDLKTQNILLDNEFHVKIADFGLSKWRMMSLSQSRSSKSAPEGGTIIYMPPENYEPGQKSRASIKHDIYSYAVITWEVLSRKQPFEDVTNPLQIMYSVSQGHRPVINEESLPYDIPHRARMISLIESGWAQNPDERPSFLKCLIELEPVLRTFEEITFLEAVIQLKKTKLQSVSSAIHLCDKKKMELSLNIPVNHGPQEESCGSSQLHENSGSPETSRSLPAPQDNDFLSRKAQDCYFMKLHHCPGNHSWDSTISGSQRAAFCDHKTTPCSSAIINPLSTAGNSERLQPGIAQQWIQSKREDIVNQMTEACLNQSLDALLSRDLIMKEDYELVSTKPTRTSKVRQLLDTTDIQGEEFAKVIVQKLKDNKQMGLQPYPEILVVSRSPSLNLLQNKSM

[2] = target: Cyclin-dependent kinase 13/Cyclin-K (Homo sapiens, UniProt Q14004); assay: Inhibition of recombinant full length human CDK13/cyclinK using RSRSRSRSRSRSR as substrate incubated for 120 mins in presence of [gamma-33ATP] by radiometric scintillation counting analysis; assay type: protein-complex assay
[3] = target: Casein kinase I isoform gamma-1 (Homo sapiens, UniProt Q9HCP0); assay: Inhibition of recombinant human CK1gamma1(25 to 355 residues) using KRRRALS(p)VAS as substrate incubated for 40 mins in presence of [gamma-33ATP] by radiometric scintillation counting analysis
Chain of Casein kinase I isoform gamma-1 (Q9HCP0 whole entry, the tested form may be a part, canonical isoform): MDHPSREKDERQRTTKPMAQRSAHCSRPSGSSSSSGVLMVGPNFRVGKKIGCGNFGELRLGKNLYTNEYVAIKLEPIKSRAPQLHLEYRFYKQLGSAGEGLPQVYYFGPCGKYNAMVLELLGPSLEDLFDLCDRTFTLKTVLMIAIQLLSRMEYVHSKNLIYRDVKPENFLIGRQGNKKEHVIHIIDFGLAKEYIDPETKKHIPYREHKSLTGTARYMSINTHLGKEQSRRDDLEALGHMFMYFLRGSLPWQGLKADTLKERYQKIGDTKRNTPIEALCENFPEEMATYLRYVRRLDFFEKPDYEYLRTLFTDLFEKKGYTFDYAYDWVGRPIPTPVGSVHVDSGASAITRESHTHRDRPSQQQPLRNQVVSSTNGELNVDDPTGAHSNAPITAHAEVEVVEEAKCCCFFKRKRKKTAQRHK

[4] = target: Tyrosine-protein kinase Fgr (Homo sapiens, UniProt P09769); assay: Inhibition of recombinant human FGR (2 to end residues) using poly(Glu, Tyr) 4:1 as substrate after 40 mins in presence of [gamma-33ATP] by radiometric scintillation counting analysis
[5] = target: Serine/threonine-protein kinase SIK2 (Homo sapiens, UniProt Q9H0K1); assay: Inhibition of recombinant human SIK2 (1 to 276 residues) using KKKVSRSGLYRSP as substrate incubated for 40 mins in presence of [gamma33P]ATP by radiometric scintillation counting analysis
Chain of Serine/threonine-protein kinase SIK2 (Q9H0K1 whole entry, the tested form may be a part): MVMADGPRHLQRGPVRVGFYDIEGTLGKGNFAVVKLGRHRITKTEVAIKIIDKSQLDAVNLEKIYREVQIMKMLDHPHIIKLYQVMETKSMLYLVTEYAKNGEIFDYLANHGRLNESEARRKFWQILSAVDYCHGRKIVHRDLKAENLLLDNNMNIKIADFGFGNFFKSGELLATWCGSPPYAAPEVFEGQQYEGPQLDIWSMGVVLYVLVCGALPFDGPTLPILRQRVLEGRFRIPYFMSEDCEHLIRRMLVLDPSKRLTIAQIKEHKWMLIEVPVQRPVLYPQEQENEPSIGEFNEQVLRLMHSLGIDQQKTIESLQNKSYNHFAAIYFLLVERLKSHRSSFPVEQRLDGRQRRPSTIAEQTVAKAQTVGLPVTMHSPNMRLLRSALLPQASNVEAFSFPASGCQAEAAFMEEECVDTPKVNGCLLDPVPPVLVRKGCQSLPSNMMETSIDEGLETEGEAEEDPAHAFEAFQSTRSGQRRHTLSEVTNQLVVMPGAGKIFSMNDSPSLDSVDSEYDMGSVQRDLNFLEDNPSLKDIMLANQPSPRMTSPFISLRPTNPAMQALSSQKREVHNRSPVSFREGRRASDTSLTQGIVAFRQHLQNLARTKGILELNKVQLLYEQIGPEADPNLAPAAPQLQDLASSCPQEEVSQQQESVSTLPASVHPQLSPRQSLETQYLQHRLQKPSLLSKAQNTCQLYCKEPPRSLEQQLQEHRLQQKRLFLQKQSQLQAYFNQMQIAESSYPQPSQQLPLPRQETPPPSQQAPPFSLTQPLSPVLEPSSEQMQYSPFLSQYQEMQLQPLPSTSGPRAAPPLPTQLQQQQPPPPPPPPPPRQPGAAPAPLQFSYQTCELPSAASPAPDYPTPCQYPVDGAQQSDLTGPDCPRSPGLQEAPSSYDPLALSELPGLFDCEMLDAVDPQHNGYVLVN

[6] = target: Serine/threonine-protein kinase DCLK2 (Homo sapiens, UniProt Q8N568); assay: Inhibition of recombinant human DCAMKL2 (376 to end residues) using KKLNRTLSFAEPG as substrate after 40 mins in presence of [gamma-33ATP] by radiometric scintillation counting analysis
[7] = target: Receptor-type tyrosine-protein kinase FLT3 (Homo sapiens, UniProt P36888, D835Y); assay: Inhibition of recombinant human FLT3 D835Y mutant (564 to end residues) using EAIYAAPFAKKK as substrate after 40 mins in presence of [gamma-33ATP] by radiometric scintillation counting analysis
[8] = target: Serine/threonine-protein kinase Chk2 (Homo sapiens, UniProt O96017, I157T); assay: Inhibition of recombinant human CHK2 I157T mutant (5 to end residues) using KKKVSRSGLYRSP as substrate incubated for 40 mins in presence of [gamma-33ATP] by radiometric scintillation counting analysis
Activin receptor type-1B = Activin receptor type-1B (Homo sapiens, UniProt P36896); assay: Inhibition of human recombinant ALK4 (150 to end residues) using casein as substrate incubated for 40 mins in presence of [gamma-33P]ATP by radiometric scintillation counting analysis
[9] = target: Testis-specific serine/threonine-protein kinase 3 (Homo sapiens, UniProt Q96PN8); assay: Inhibition of recombinant full-length human TSSK3 using AMARAASAAALAR as substrate incubated for 40 mins in presence of [gamma33P]ATP by radiometric scintillation counting analysis
Chain of Testis-specific serine/threonine-protein kinase 3 (Q96PN8 whole entry): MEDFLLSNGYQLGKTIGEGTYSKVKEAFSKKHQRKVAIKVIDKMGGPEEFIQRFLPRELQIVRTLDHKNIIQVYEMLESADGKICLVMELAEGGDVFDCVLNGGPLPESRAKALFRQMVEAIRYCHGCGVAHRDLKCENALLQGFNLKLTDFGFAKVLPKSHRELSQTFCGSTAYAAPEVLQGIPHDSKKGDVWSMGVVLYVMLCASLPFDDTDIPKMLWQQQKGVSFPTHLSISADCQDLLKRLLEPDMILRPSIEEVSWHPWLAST

[10] = target: Calcium/calmodulin-dependent protein kinase kinase 2 (Homo sapiens, UniProt Q96RR4, T85S); assay: Inhibition of recombinant full length human CaMKK2 T85S mutant using calmodulin as substrate incubated for 40 mins in presence of [gamma-33ATP] by radiometric scintillation counting analysis
Chain of Calcium/calmodulin-dependent protein kinase kinase 2 (Q96RR4 2-588 T85S limits assumed): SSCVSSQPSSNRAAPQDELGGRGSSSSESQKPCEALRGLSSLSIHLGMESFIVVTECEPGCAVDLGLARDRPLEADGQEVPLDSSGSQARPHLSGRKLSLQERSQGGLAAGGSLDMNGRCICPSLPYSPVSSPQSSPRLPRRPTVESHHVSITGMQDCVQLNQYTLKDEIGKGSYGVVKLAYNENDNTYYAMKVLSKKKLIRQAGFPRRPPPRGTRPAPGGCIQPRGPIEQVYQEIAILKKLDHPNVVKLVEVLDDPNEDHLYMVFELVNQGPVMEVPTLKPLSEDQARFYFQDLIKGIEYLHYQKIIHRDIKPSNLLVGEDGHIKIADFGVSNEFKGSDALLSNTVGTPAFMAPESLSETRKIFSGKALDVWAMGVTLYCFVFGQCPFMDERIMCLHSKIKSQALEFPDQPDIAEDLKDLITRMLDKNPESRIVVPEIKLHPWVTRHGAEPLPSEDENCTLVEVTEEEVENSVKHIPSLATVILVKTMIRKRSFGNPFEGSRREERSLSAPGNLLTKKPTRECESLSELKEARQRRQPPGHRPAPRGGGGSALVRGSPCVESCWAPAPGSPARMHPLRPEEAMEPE

[11] = target: Serine/threonine-protein kinase N2 (Homo sapiens, UniProt Q16513); assay: Inhibition of recombinant human PRK2 (501 to end residues) using AKRRRLSSLRA as substrate incubated for 40 mins in presence of [gamma33P]ATP by radiometric scintillation counting analysis
[12] = Protein binding in rat plasma at 1 uM incubated incubated for 5 hrs under shaking conditions by LC-MS analysis; assay type: ADME, cell-free; conditions: read-out: PPB (converted)
Ephrin type-A receptor 8 = Ephrin type-A receptor 8 (Homo sapiens, UniProt P29322); assay: Inhibition of recombinant human EPhA8 (615 to 911 residues) at 10 uM using KTFCGTPEYLAPE as substrate incubated for 40 mins in presence of [gamma-33PATP] by radiometric scintillation counting analysis
Chain of Ephrin type-A receptor 8 (P29322 whole entry, the tested form may be a part): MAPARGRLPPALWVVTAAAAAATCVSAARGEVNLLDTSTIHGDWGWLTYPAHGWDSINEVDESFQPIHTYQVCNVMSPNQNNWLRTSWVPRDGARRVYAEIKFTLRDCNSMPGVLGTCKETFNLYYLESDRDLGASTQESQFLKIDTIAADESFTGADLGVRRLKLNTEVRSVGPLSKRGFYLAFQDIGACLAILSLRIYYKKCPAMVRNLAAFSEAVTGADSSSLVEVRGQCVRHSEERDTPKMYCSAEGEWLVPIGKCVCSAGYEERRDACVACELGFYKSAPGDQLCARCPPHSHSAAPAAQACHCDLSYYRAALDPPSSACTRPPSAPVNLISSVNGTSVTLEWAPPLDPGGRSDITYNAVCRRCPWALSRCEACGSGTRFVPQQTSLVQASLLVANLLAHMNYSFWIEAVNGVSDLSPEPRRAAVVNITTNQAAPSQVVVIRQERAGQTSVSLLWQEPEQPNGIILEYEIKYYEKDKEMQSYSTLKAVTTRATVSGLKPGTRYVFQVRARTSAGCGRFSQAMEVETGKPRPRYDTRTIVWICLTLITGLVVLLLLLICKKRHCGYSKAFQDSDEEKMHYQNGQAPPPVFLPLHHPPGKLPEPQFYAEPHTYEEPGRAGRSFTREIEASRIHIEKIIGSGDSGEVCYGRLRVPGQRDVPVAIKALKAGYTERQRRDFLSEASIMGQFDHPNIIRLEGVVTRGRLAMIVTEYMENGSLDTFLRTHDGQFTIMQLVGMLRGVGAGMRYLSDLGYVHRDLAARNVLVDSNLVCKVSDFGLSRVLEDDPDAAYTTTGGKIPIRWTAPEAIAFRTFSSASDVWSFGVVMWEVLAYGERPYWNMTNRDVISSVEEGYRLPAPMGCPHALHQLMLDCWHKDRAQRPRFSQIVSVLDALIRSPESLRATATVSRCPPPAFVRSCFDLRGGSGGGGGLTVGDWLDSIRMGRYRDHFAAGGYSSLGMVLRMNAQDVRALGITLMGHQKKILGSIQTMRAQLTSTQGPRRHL

[13] = target: Serine/threonine-protein kinase 26 (Homo sapiens, UniProt Q9P289); assay: Inhibition of recombinant human MST4 (4 to 304 residues) using RLGRDKYKTLRQI as substrate measured after 40 mins in presence of [gamma33P]ATP by radiometric scintillation counting analysis
[14] = Inhibition of recombinant human Ros V2262A mutant (1883 to end residues) using KKKSPGEYVNIEFG as substrate incubated for 40 mins in presence of [gamma33P]ATP by radiometric scintillation counting analysis
[15] = target: Bone morphogenetic protein receptor type-1B (Homo sapiens, UniProt O00238); assay: Inhibition of human recombinant ALK6 (148 to end residues) using casein as substrate incubated for 40 mins in presence of [gamma-33P]ATP by radiometric scintillation counting analysis
Chain of Bone morphogenetic protein receptor type-1B (O00238 whole entry): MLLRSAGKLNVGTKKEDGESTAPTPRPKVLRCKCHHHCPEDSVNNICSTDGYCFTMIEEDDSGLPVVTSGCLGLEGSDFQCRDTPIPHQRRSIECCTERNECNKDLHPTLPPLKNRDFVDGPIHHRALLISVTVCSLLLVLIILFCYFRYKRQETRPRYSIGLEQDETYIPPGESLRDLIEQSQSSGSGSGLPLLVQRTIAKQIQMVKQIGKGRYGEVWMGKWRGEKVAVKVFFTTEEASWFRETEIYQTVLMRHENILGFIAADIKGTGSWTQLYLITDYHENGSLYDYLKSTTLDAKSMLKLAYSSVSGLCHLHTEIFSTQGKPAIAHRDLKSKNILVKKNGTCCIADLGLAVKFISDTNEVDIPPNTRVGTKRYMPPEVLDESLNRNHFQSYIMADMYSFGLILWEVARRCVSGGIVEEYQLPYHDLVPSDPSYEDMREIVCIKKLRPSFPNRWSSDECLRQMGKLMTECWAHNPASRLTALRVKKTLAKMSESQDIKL

[16] = target: Serine/threonine-protein kinase pim-3 (Homo sapiens, UniProt Q86V86); assay: Inhibition of recombinant human Pim3 (2 to end residues) using RSRHSSYPAGT as substrate incubated for 40 mins in presence of [gamma33P]ATP by radiometric scintillation counting analysis
[17] = target: Ribosomal protein S6 kinase alpha-4 (Homo sapiens, UniProt O75676); assay: Inhibition of recombinant human MSK2 (2 to end residues) using GRPRTSSFAEGKK as substrate incubated for 40 mins in presence of [gamma-33ATP by radiometric scintillation counting analysis
Chain of Ribosomal protein S6 kinase alpha-4 (O75676 whole entry): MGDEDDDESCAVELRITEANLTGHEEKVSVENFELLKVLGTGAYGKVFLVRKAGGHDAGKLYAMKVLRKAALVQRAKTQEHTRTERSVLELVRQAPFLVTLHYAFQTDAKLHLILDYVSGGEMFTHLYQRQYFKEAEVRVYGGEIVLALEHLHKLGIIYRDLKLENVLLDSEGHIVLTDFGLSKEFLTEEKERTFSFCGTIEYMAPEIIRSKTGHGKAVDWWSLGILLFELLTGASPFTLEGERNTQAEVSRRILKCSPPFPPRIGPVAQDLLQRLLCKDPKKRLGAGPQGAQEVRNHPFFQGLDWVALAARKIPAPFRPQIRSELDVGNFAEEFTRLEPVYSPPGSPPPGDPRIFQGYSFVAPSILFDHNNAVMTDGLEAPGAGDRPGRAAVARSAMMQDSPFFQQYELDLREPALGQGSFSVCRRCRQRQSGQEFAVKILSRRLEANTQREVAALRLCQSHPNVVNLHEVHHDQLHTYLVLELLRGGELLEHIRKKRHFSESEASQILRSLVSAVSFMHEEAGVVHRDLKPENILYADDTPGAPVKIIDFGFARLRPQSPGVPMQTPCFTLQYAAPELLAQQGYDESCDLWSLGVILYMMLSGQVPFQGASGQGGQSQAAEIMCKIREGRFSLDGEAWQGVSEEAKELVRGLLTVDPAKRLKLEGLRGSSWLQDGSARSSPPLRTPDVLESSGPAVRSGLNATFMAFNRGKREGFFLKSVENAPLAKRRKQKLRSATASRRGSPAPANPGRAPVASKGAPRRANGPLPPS

[18] = target: Tyrosine-protein kinase ABL1 (Homo sapiens, UniProt P00519, M351T); assay: Inhibition of human recombinant ABL1 M351T mutant (27 to end residues) using EAIYAAPFAKKK as substrate incubated for 40 mins in presence of [gamma-33P]ATP by scintillation counting based radiometry assay
[19] = n-Octanol-water partition coefficient, logD of compound at 1 mg measured after 48 hrs under shaking condition by LC-MS analysis; assay type: physicochemical
CDK6/cyclin D3 = CDK6/cyclin D3 (Homo sapiens, UniProt Q00534); assay: Inhibition of recombinant full length human CDK6/cyclinD3 using histone H1 as substrate incubated for 40 mins in presence of [gamma-33ATP] by radiometric scintillation counting analysis; assay type: protein-complex assay
[20] = target: Serine/threonine-protein kinase N1 (Homo sapiens, UniProt Q16512, V901I); assay: Inhibition of recombinant human PRK1 V901I (498 to end residues) using KKLNRTLSFAEPG as substrate incubated for 40 mins in presence of [gamma33P]ATP by radiometric scintillation counting analysis
[21] = Inhibition of recombinant human TIE2 Q939H/Q940H/ R849W triple mutant (771 to end residues) using EFPIYDFLPAKKK as substrate incubated for 40 mins in presence of [gamma33P]ATP by radiometric scintillation counting analysis

CN(C)c1ccc(C(=O)Nc2cccc(NC(=O)COc3ccc4c(=O)ccoc4c3)c2)cc1
IC50 (Myotonin-protein kinase): > 10 µM | IC50 [1]: > 10 µM | IC50 [2]: > 10 µM | IC50 [3]: > 10 µM | IC50 [4]: > 10 µM | IC50 [5]: > 10 µM | IC50 [6]: > 10 µM | IC50 [7]: > 10 µM | IC50 [8]: > 10 µM | IC50 (Activin receptor type-1B): > 10 µM | IC50 [9]: > 10 µM | IC50 [10]: > 10 µM | IC50 [11]: > 10 µM | fraction unbound at 5 h, 1 µM [12]: 0.004 | IC50 (Ephrin type-A receptor 8): > 10 µM | IC50 [13]: > 10 µM | IC50 [14]: > 10 µM | IC50 [15]: > 10 µM | IC50 [16]: > 10 µM | IC50 [17]: > 10 µM | IC50 [18]: > 10 µM | logD at 48 h [19]: 2.65 | IC50 (CDK6/cyclin D3): > 10 µM | IC50 [20]: > 10 µM | IC50 [21]: > 10 µM
